Results taken from ChEMBL document CHEMBL1140148, “Structure-activity studies on a series of a 2-aminopyrimidine-containing histamine H4 receptor ligands” (J Med Chem, 2008).
≈ marks a conversion by molar mass, not a printed value. Blank lines part the entries; values can stand above or below the molecule they belong to. Calls of active or inactive are those of the source. No cut-off for these calls is given here.

What was measured:
Rattus norvegicus [1] = experiment: Plasma concentration in rat at 30 umol/kg, ip; type: ADME, organism-based; conditions: in vivo
Rattus norvegicus [2] = experiment: Plasma concentration in rat at 100 umol/kg, ip; type: ADME, organism-based; conditions: in vivo
[3] = Protein binding in ip dosed rat plasma; type: ADME, organism-based; conditions: read-out: PPB (converted)
Rattus norvegicus [4] = organism: Rattus norvegicus; experiment: Antiinflammatory activity against carrageenan-induced hyperalgesia in rat assessed as increase in paw withdrawal by measuring plasma free fraction potency; type: functional, organism-based
[5] = Inhibition of adrenergic alpha2 receptor at 10 umol
[6] = biological target: 5-hydroxytryptamine receptor 1A (Homo sapiens) (UniProt P08908); experiment: Inhibition of 5HT1A receptor at 10 umol
Sequence of 5-hydroxytryptamine receptor 1A (Homo sapiens) (P08908 whole entry): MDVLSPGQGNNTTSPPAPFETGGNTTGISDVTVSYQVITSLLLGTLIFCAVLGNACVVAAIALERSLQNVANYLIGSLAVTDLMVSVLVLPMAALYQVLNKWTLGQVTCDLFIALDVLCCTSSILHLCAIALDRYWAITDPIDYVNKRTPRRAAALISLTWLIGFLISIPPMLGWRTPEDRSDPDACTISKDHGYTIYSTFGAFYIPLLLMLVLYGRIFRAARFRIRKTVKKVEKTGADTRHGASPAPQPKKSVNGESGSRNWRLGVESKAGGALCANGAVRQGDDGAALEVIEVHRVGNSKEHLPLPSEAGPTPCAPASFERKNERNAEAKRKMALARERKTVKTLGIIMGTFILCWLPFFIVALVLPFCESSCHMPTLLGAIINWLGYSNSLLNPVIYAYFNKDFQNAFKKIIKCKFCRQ

[7] = biological target: 5-hydroxytryptamine receptor 1B (Homo sapiens) (UniProt P28222); experiment: Inhibition of 5HT1B receptor at 10 umol
[8] = biological target: T1, 5-hydroxytryptamine receptor 2A (Homo sapiens, UniProt P28223); experiment: Inhibition of 5HT2A receptor at 10 umol
T1 sequence (P28223 whole entry): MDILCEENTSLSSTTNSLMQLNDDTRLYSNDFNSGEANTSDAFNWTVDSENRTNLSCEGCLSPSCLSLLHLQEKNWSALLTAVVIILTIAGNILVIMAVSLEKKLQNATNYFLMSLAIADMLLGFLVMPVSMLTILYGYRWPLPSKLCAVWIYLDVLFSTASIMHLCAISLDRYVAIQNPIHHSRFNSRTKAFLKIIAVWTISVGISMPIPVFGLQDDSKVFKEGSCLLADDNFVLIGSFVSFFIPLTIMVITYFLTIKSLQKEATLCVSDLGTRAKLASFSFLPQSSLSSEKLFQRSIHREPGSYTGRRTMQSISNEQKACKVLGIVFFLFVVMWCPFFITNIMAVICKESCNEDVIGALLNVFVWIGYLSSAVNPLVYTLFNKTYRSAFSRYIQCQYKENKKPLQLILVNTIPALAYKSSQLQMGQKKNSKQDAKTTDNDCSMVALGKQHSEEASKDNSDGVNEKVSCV

[9] = biological target: T2, 5-hydroxytryptamine receptor 7 (Homo sapiens, UniProt P34969); experiment: Inhibition of 5HT7 receptor at 10 umol
T2 sequence (P34969 whole entry): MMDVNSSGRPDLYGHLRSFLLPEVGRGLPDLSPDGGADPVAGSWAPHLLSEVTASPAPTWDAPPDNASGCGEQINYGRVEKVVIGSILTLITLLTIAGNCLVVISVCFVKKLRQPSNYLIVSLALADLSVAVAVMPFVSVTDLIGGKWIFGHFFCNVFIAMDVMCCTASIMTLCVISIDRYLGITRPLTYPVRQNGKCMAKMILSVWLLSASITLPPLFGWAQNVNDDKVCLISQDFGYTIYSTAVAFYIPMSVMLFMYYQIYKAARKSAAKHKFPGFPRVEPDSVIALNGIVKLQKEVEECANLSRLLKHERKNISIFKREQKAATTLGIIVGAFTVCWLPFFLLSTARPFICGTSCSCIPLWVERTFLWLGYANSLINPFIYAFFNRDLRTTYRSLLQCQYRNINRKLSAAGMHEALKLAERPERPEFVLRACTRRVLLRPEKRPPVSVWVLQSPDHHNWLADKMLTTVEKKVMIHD

[10] = biological target: T3, 5-hydroxytryptamine receptor 1A (Homo sapiens, UniProt P08908); experiment: Binding affinity to 5HT1A receptor
T3 sequence (P08908 whole entry): as the sequence (P08908 whole entry) above

[11] = biological target: 5-hydroxytryptamine receptor 1D (Homo sapiens, UniProt P28221); experiment: Binding affinity to 5HT1D receptor
[12] = biological target: T1, 5-hydroxytryptamine receptor 2A; experiment: Binding affinity to 5HT2A receptor
[13] = biological target: 5-hydroxytryptamine receptor 2C (Homo sapiens, UniProt P28335); experiment: Binding affinity to 5HT2C receptor
[14] = biological target: T2, 5-hydroxytryptamine receptor 7; experiment: Binding affinity to 5HT7 receptor
[15] = biological target: Alpha-2A adrenergic receptor (Homo sapiens, UniProt P08913); experiment: Binding affinity to adrenergic alpha2A receptor
Sequence of Alpha-2A adrenergic receptor (P08913 whole entry): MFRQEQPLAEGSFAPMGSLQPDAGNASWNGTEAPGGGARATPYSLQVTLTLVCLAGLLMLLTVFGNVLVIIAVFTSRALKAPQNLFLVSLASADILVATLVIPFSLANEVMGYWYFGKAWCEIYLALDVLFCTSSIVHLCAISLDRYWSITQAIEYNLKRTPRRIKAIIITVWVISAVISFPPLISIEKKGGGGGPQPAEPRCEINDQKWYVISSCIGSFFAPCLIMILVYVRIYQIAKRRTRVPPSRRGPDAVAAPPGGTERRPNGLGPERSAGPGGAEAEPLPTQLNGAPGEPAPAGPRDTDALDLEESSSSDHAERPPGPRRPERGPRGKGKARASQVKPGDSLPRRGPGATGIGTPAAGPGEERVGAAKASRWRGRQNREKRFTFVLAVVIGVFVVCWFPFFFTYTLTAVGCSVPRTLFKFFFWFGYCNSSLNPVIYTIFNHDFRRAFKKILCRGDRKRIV

[16] = biological target: Alpha-2C adrenergic receptor (Homo sapiens, UniProt P18825); experiment: Binding affinity to adrenergic Alpha-2C receptor
[17] = Binding affinity to opioid receptor
[18] = Binding affinity to cyclooxygenase
P2X purinoceptor 7 [19] = biological target: P2X purinoceptor 7 (Homo sapiens, UniProt Q99572); experiment: Binding affinity to human P2X7 channel
Sequence of P2X purinoceptor 7 (Homo sapiens, UniProt Q99572) (Q99572 whole entry): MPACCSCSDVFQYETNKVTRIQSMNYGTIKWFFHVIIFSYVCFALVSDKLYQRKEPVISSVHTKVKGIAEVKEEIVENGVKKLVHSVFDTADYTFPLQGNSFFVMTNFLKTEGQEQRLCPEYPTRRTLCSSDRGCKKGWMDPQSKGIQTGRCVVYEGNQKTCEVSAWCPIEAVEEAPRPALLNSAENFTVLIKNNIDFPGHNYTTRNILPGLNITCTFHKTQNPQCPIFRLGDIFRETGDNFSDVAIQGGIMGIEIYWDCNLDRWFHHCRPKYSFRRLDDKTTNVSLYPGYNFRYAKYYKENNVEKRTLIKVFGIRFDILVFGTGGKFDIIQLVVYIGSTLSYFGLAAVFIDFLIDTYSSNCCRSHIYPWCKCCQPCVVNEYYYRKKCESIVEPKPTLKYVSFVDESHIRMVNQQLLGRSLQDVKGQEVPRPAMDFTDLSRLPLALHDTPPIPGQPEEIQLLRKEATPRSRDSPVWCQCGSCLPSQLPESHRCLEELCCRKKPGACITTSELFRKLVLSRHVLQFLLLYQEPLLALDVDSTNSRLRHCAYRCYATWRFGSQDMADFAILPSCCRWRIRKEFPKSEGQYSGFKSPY

P2X purinoceptor 7 [20] = biological target: P2X purinoceptor 7 (Mus musculus, UniProt Q9Z1M0); experiment: Binding affinity to mouse P2X7 channel
Sequence of P2X purinoceptor 7 (Mus musculus, UniProt Q9Z1M0) (Q9Z1M0 whole entry): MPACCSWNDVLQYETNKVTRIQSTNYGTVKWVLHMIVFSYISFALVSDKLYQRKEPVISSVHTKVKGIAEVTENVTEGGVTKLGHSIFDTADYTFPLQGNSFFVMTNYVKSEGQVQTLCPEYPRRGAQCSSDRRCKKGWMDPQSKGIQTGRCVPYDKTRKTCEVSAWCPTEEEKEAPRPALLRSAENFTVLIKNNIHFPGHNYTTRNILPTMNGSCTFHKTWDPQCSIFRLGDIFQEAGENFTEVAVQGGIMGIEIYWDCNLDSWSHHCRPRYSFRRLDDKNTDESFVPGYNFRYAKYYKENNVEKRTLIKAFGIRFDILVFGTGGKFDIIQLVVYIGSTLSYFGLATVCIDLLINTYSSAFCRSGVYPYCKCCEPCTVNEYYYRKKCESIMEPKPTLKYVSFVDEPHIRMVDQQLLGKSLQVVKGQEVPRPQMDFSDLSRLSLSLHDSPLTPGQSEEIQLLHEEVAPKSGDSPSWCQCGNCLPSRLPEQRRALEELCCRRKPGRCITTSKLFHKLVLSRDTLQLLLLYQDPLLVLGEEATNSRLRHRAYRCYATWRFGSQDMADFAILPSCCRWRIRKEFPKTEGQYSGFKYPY

[21] = Binding affinity to T-type voltage gated calcium channel
[22] = Binding affinity to NMDA receptor
Rattus norvegicus [23] = experiment: Toxicity in rat assessed as effect on locomotor activity by rotarod test upto 300 umol/kg; type: organism-based; conditions: in vivo
[24] = Binding affinity to neuronal nicotine receptor
Cannabinoid receptor 1 = Cannabinoid receptor 1 (Homo sapiens, UniProt P21554); experiment: Binding affinity to cannabinoid receptor
Sequence of Cannabinoid receptor 1 (P21554 whole entry): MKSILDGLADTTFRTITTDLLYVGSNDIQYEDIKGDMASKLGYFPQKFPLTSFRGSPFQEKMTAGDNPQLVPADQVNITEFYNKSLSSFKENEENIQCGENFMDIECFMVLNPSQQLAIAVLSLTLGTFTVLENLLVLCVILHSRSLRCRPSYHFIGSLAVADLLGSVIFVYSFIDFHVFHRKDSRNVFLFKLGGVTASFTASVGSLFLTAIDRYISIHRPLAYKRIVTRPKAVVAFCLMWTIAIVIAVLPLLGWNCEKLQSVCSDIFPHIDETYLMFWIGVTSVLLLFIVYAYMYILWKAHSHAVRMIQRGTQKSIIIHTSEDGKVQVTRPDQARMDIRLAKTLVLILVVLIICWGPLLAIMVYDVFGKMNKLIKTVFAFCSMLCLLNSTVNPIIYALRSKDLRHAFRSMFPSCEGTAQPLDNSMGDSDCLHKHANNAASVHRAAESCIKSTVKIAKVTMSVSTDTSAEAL

[25] = biological target: T3, 5-hydroxytryptamine receptor 1A; experiment: Agonist activity at 5HT1A receptor expressed in CHO cells by GTPgammaS binding assay; type: functional, cell-based
[26] = biological target: 5-hydroxytryptamine receptor 1A (Homo sapiens) (UniProt P08908); experiment: Agonist activity at 5HT1A receptor expressed in CHO cells by GTPgammaS binding assay relative to serotonin; type: functional, cell-based
[27] = Plasma concentration in rat at 30 umol/kg, ip after 30 mins; type: ADME, organism-based
[28] = Drug level in rat brain at 30 umol/kg, ip after 30 mins; type: ADME, organism-based; conditions: read-out: Drug uptake
Histamine H4 receptor [29] = biological target: T4, Histamine H4 receptor (Rattus norvegicus, UniProt Q91ZY1); experiment: Agonist activity at rat histamine H4 receptor expressed in HEK293 cells coexpressing Gqi5 protein assessed as calcium flux by FLIPR assay; type: functional, cell-based
T4 sequence (Q91ZY1 whole entry): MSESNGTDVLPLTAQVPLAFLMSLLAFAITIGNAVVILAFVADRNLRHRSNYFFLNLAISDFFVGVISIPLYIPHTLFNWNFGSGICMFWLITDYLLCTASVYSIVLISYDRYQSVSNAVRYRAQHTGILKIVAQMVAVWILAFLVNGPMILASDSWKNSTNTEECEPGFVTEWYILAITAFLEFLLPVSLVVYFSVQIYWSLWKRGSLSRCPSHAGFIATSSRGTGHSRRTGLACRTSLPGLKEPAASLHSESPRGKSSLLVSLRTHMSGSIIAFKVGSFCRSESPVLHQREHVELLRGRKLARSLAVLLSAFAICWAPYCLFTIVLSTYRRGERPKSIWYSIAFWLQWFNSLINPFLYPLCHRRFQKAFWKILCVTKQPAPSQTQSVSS

[30] = Terminal volume of distribution in rat at 1 mg/kg, iv; type: ADME, organism-based; parameters: dose 1 mg/kg, route intravenous; conditions: in vivo, read-out: Vbeta
[31] = Terminal volume of distribution in mouse at 2.5 mg/kg, iv; type: ADME, organism-based; parameters: dose 2.5 mg/kg, route intravenous; conditions: in vivo, read-out: Vbeta
[32] = Plasma clearance in rat at 1 mg/kg, iv; type: ADME, organism-based; parameters: dose 1 mg/kg, route intravenous
[33] = Plasma clearance in mouse at 2.5 mg/kg, iv; type: ADME, organism-based; parameters: dose 2.5 mg/kg, route intravenous
[34] = Cmax in rat at 1 mg/kg, iv; type: ADME, organism-based; parameters: dose 1 mg/kg, route intravenous; conditions: in vivo
[35] = Cmax in mouse at 2.5 mg/kg, iv; type: ADME, organism-based; parameters: dose 2.5 mg/kg, route intravenous; conditions: in vivo
[36] = Tmax in rat at 1 mg/kg, po; type: ADME, organism-based; parameters: dose 1 mg/kg, route oral; conditions: in vivo
[37] = Tmax in mouse at 2.5 mg/kg, po; type: ADME, organism-based; parameters: dose 2.5 mg/kg, route oral; conditions: in vivo
[38] = Bioavailability in rat at 1 mg/kg, po; type: ADME, organism-based; conditions: in vivo
[39] = Bioavailability in mouse at 2.5 mg/kg, po; type: ADME, organism-based; conditions: in vivo
[40] = Cmax in rat at 1 mg/kg, po; type: ADME, organism-based; parameters: dose 1 mg/kg, route oral; conditions: in vivo
[41] = Cmax in mouse at 2.5 mg/kg, po; type: ADME, organism-based; parameters: dose 2.5 mg/kg, route oral; conditions: in vivo
[42] = Half life in mouse at 2.5 mg/kg, po; type: ADME, organism-based; parameters: dose 2.5 mg/kg, route oral; conditions: in vivo
Histamine H4 receptor [43] = biological target: Histamine H4 receptor (Mus musculus, UniProt Q91ZY2); experiment: Agonist activity at mouse histamine H4 receptor expressed in HEK293 cells coexpressing Gqi5 protein assessed as calcium flux by FLIPR assay; type: functional, cell-based
[44] = biological target: Histamine H4 receptor (Mus musculus) (UniProt Q91ZY2); experiment: Agonist activity at mouse histamine H4 receptor expressed in HEK293 cells coexpressing Gqi5 protein assessed as calcium flux by FLIPR assay relative to histamine; type: functional, cell-based
Histamine H4 receptor [45] = biological target: T4, Histamine H4 receptor; experiment: Displacement of [3H]histamine from rat histamine H4 receptor expressed in HEK293 cells; type: cell-based
Histamine H3 receptor [46] = biological target: Histamine H3 receptor (Homo sapiens, UniProt Q9Y5N1); experiment: Binding affinity to human histamine H3 receptor
Sequence of Histamine H3 receptor (Homo sapiens, UniProt Q9Y5N1) (Q9Y5N1 whole entry): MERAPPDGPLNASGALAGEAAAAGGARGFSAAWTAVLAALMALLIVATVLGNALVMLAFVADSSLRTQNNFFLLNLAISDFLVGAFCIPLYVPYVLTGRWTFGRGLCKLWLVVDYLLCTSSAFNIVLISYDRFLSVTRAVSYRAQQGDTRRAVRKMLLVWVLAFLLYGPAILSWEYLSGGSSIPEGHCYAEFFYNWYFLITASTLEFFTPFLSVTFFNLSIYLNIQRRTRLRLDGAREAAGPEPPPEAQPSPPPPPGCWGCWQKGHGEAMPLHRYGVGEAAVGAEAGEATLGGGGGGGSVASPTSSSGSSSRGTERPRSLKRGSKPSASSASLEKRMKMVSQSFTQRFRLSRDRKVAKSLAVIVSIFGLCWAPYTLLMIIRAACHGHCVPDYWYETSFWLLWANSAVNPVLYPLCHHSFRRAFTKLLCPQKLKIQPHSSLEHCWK

Histamine H3 receptor [47] = biological target: Histamine H3 receptor (Rattus norvegicus, UniProt Q9QYN8); experiment: Binding affinity to rat histamine H3 receptor
Sequence of Histamine H3 receptor (Rattus norvegicus, UniProt Q9QYN8) (Q9QYN8 whole entry): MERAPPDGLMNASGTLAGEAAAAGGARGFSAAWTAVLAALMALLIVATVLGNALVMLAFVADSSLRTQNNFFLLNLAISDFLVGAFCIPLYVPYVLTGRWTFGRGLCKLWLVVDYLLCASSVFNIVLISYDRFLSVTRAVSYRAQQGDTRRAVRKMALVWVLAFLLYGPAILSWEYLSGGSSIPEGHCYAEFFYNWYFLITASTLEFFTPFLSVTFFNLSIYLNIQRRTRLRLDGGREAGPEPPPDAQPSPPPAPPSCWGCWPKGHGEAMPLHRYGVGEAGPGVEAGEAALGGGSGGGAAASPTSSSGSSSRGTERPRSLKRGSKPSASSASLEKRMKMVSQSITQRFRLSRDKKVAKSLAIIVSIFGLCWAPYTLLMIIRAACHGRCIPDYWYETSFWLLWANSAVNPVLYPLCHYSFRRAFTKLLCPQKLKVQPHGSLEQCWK

Mus musculus [48] = experiment: Antiinflammatory activity in zymosan-induced peritonitis in sc dosed BALB/c mouse model assessed as decrease in myeloperoxidase activity in peritoneal lavage; type: functional
Mus musculus [49] = experiment: Antiinflammatory activity in ip dosed CD1/ICR mouse assessed as reduction of clobenpropit-induced itching; type: functional
Mus musculus [50] = experiment: Antiinflammatory activity in ip dosed CD1/ICR mouse assessed as reduction of clobenpropit-induced itching at 0.1 to 10 umol administered into scruff of neck; type: functional, organism-based
[51] = Plasma concentration in mouse at 25 umol/kg, ip after 30 mins; type: ADME, organism-based
Histamine H4 receptor [52] = biological target: T4, Histamine H4 receptor; experiment: Agonist activity at rat histamine H4 receptor expressed in HEK293 cells coexpressing Gqi5 protein by GTPgammaS assay; type: functional, cell-based
[53] = Inhibition of histamine-induced shape change in BALB/c mouse BMMC by gated autofluorescence forward scatter; type: functional
Rattus norvegicus [54] = experiment: Antiinflammatory activity against carrageenan-induced thermal hyperalgesia in rat assessed as increase in paw withdrawal at 30 umol/kg, ip relative to control; type: functional
Rattus norvegicus [55] = experiment: Antiinflammatory activity against carrageenan-induced thermal hyperalgesia in rat assessed as increase in paw withdrawal at 100 umol/kg, ip relative to control; type: functional
Rattus norvegicus [56] = experiment: Antiinflammatory activity against carrageenan-induced thermal hyperalgesia in ip dosed rat assessed as increase in paw withdrawal; type: functional
Rattus norvegicus [57] = experiment: Plasma concentration in carrageenan-induced rat at 10 umol/kg, ip; type: ADME, organism-based; conditions: in vivo
[58] = biological target: Histamine H4 receptor (Rattus norvegicus) (UniProt Q91ZY1); conditions: HEK293
Sequence of Histamine H4 receptor (Rattus norvegicus) (Q91ZY1 whole entry): as the sequence (Q91ZY1 whole entry) above

Histamine H4 receptor [59] = biological target: T5, Histamine H4 receptor (Homo sapiens, UniProt Q9H3N8); conditions: HEK293
Histamine H4 receptor [60] = biological target: T5, Histamine H4 receptor; experiment: Agonist activity at human histamine H4 receptor expressed in HEK293 cells coexpressing Gqi5 protein assessed as calcium flux by FLIPR assay relative to histamine; type: functional, cell-based
Histamine H4 receptor [61] = biological target: T5, Histamine H4 receptor; experiment: Agonist activity at human histamine H4 receptor expressed in HEK293 cells coexpressing Gqi5 protein assessed as calcium flux by FLIPR assay; type: functional, cell-based

Compound: CN1CCN(c2cc(-c3ccc(C#N)cc3)nc(N)n2)CC1
Cp (Rattus norvegicus [1]): 836 ng/mL | Cp (Rattus norvegicus [2]): 2468 ng/mL | fraction unbound [3]: 0.33 | EC50 (Rattus norvegicus [4]): 0.2 µg/mL (≈ 0.679 µM) | inhibition [5]: 92% | inhibition [6]: 99% | inhibition [7]: 86% | inhibition [8]: 71% | inhibition [9]: 53% | Ki [10]: 42 nM | Ki [11]: 120 nM | Ki [12]: 4100 nM | Ki [13]: 3000 nM | Ki [14]: 5900 nM | Ki [15]: 74 nM | Ki [16]: 290 nM | IC50 [17]: > 10000 nM | IC50 [18]: > 100000 nM | IC50 (P2X purinoceptor 7 [19]): > 100000 nM | IC50 (P2X purinoceptor 7 [20]): > 100000 nM | IC50 [21]: > 10000 nM | IC50 [22]: > 100000 nM | Activity (Rattus norvegicus [23]): Non-toxic | Ki [24]: 100000 nM | Ki (Cannabinoid receptor 1): > 10000 nM | EC50 [25]: 1620 nM | Efficacy [26]: 92% | concentration at 0.5 h [27]: 600 ng/mL | concentration at 0.5 h [28]: 12100 ng/g | EC50 (Histamine H4 receptor [29]): 58.9 nM | Vd [30]: 7.1 L/kg | Vd [31]: 3.9 L/kg | clearance [32]: 172 mL/min/kg | clearance [33]: 255 mL/min/kg | Cmax [34]: 160 ng/mL | Cmax [35]: 570 ng/mL | Tmax [36]: 24 min | Tmax [37]: 15 min | bioavailability [38]: 31% | bioavailability [39]: 41% | Cmax [40]: 32 ng/mL | Cmax [41]: 92 ng/mL | half-life [42]: 36 min | EC50 (Histamine H4 receptor [43]): 123 nM | Efficacy [44]: 54% | Ki (Histamine H4 receptor [45]): 275 nM | Ki (Histamine H3 receptor [46]): 1290 nM | Ki (Histamine H3 receptor [47]): 245 nM | ED50 (Mus musculus [48]): 64 µmol/kg | ED50 (Mus musculus [49]): 34 µmol/kg | Activity (Mus musculus [50]): inactive | concentration at 0.5 h [51]: 1150 ng/mL | EC50 (Histamine H4 receptor [52]): 4680 nM | pKb [53]: 6.56 | Activity (Rattus norvegicus [54]): 36% | Activity (Rattus norvegicus [55]): 100% | ED50 (Rattus norvegicus [56]): 32 µmol/kg | Cp (Rattus norvegicus [57]): 212 ng/mL

Compound: CN1CCN(c2cc(-n3cnc4ccccc43)nc(N)n2)CC1
Efficacy (Histamine H4 receptor [60]): 82% | EC50 (Histamine H4 receptor [61]): 178 nM | pKb [58]: 6.46

Compound: CN1CCN(c2nc(N)nc(-c3ccc(C#N)cc3)c2-c2ccccc2)CC1
pKb [58]: 5.29 | pKb (Histamine H4 receptor [59]): 5.69

Second part, the molecule after the results:

pKb [58]: 6.03 | pKb (Histamine H4 receptor [59]): 6.29
Compound: CN1CCN(c2cc(-c3ccc(-c4ccccc4)cc3)nc(N)n2)CC1

pKb [58]: 7.27 | pKb (Histamine H4 receptor [59]): 7.81
Compound: CN1CCN(c2cc(-c3cccc4ccccc34)nc(N)n2)CC1

pKb [58]: 6.38 | pKb (Histamine H4 receptor [59]): 6.85
Compound: CN1CCN(c2cc(-c3cccc(-c4ccccc4)c3)nc(N)n2)CC1
